What follows are compounds tested on Black Bean Aphid [Aphis fabae (Scop.)] (assay: Black Bean Aphid (BBA) plant spray assay, mortality after three days). Settings: spray on infested nasturtium plants.
Type: in vivo
Description: (§1) Screening was initiated at a maximal concentration level believed to be injurious to the insect population. The initial level should not be understood as representing a maximum at which a viable test for insecticidal activity can be conducted. […]
(§2) Nasturtium plants, Tropaeolum sp., approximately five centimeters (cm) high were transplanted into sandy loam soil in three-inch clay pots. Each pot was infested with 25-50 black bean aphids of mixed ages. Twenty-four hours later the pots were sprayed to the point of run-off with 50--50 acetone-water solutions of the test compounds.
(§3) Mortality rates were recorded after the infested plants had been held in the greenhouse for three days. Test concentrations ranged from 0.05% down to that at which 50% mortality occurs. Green Peach Aphid [Myzus persicae (Sulzer)], (GPA)
(§4) A less than 50% mortality rate at the initial concentration is indicated by a "greater than" sign (>). An approximately 50% mortality rate is indicated by the initial concentration rate. Other results are the dilutions at which an LD50 was achieved.
In the case of `CCOC(=O)N1CCN(C(=O)CSP(=S)(OCC)OCC)CC1` [Compound 12, 1-N-ethoxycarbo-4-N-O,O-diethylphosphorodithioylacetyl piperazine], the “LD50 BBA” value is reported as “.001%”. `CCOC(=O)N1CCN(C(=O)CSP(=S)(OCC)OCC)C(C)C1` (centres unmarked) [Compound 13, 1-N-ethoxycarbo-4-N'-O,O-diethylphosphorodithioylacetyl-3-methyl piperazine] was tested, and the “LD50 BBA” value was “.003%”. In the case of `CCOC(=O)N1CCN(C(=O)CSP(=O)(OCC)OCC)C(C)C1` (centres unmarked) [Compound 14, 1-N-carboethoxy-4-N'-O,O-diethylphosphoromonothioylacetyl-3-methyl piperazine], the “LD50 BBA” value is reported as “.0005%”.

The compounds below were run on Green Peach Aphid [Myzus persicae (Sulzer)] (assay: Green Peach Aphid (GPA) plant spray assay). Settings: spray on infested radish plants, three days.
Type: in vivo
Description: (§5) Screening was initiated at a maximal concentration level believed to be injurious to the insect population. The initial level should not be understood as representing a maximum at which a viable test for insecticidal activity can be conducted.
as §2, §3
(§6) The insecticidal properties were tested in the same manner as for black beam aphids with the substitution of the nasturtiums by radish plants, Rhaphanus sativus. German Cockroach [Blatella germanica (Linne)], (GR)--Direct Spray
as §4
With `CCOC(=O)N1CCN(C(=O)CSP(=S)(OCC)OCC)CC1` [Compound 12, 1-N-ethoxycarbo-4-N-O,O-diethylphosphorodithioylacetyl piperazine] the “LD50 GPA” value was “.008%”. For `CCOC(=O)N1CCN(C(=O)CSP(=S)(OCC)OCC)C(C)C1` (centres unmarked) [Compound 13, 1-N-ethoxycarbo-4-N'-O,O-diethylphosphorodithioylacetyl-3-methyl piperazine], the “LD50 GPA” value was “.008%”. With `CCOC(=O)N1CCN(C(=O)CSP(=O)(OCC)OCC)C(C)C1` (centres unmarked) [Compound 14, 1-N-carboethoxy-4-N'-O,O-diethylphosphoromonothioylacetyl-3-methyl piperazine] the “LD50 GPA” value was “.005%”.

Each compound was assayed on German Cockroach [Blatella germanica (Linne)] (assay: German Cockroach (GR) direct spray, mortality 7 days later). Settings: one-month-old nymphs, initial 0.1%.
Type: in vivo
Method: as §5
(§7) Mobile insects, such as houseflies, German cockroaches, Lygus bugs, were contained for treatment in circular cardboard cages covered with cellophane on the bottom and tulle netting on the top.
as §6
(§8) Test compounds were diluted in a 50--50 acetonewater solution. Two cubic centimeters (cc) of the compound solutions were sprayed through a DeVilbiss type EGA hand spray gun into cages each containing 10 one-month-old German cockroach nymphs.
The percent mortality was recorded 7 days later. Test concentrations ranged from 0.1% down to that at which approximately 50% mortality occurs.
as §4
For `CCOC(=O)N1CCN(C(=O)CSP(=S)(OCC)OCC)CC1` [Compound 12, 1-N-ethoxycarbo-4-N-O,O-diethylphosphorodithioylacetyl piperazine], the “LD50 GR” value was “> .1%”. `CCOC(=O)N1CCN(C(=O)CSP(=S)(OCC)OCC)C(C)C1` (centres unmarked) [Compound 13, 1-N-ethoxycarbo-4-N'-O,O-diethylphosphorodithioylacetyl-3-methyl piperazine] was tested, and the “LD50 GR” value was “> .1%”. `CCOC(=O)N1CCN(C(=O)CSP(=O)(OCC)OCC)C(C)C1` (centres unmarked) [Compound 14, 1-N-carboethoxy-4-N'-O,O-diethylphosphoromonothioylacetyl-3-methyl piperazine] was tested, and the “LD50 GR” value was “> .1%”.

What follows are compounds tested on Lygus Bug [Lygus hesperus (Knight)] (assay: Lygus Bug (LB) direct spray assay, mortality 48 hours later). Settings: adults, initial 0.05%.
Type: in vivo
Method: as §5, §7, §8
Lygus Bug [Lygus hesperus (Knight)], (LB)--Direct Spray Assay
(§9) The species was treated in the same manner as the German cockroach. The cages contained one string beam pod and 10 adult Lygus bugs. The percent mortality was recorded 48 hours later. Test concentrations ranged from 0.05% down to that at which approximately 50% mortality occurs. Saltmarsh Caterpillar [Estigmene acrea (Drury)], (SMC)--Leaf Dip Assay
as §4
In the case of `CCOC(=O)N1CCN(C(=O)CSP(=S)(OCC)OCC)CC1` [Compound 12, 1-N-ethoxycarbo-4-N-O,O-diethylphosphorodithioylacetyl piperazine], the “LD50 LB” value is reported as “> .05%”. In the case of `CCOC(=O)N1CCN(C(=O)CSP(=S)(OCC)OCC)C(C)C1` (centres unmarked) [Compound 13, 1-N-ethoxycarbo-4-N'-O,O-diethylphosphorodithioylacetyl-3-methyl piperazine], the “LD50 LB” value is reported as “> .05%”. With `CCOC(=O)N1CCN(C(=O)CSP(=O)(OCC)OCC)C(C)C1` (centres unmarked) [Compound 14, 1-N-carboethoxy-4-N'-O,O-diethylphosphoromonothioylacetyl-3-methyl piperazine] the “LD50 LB” value was “> .05%”.

What follows are compounds tested on Saltmarsh Caterpillar [Estigmene acrea (Drury)] (assay: Saltmarsh Caterpillar (SMC) leaf dip assay). Settings: curly dock leaves, second-instar larvae, 48 hours + 5 days.
Type: in vivo
Method: as §5, §9
(§10) Test compounds were diluted in a 50--50 acetone-water solution. Approximately 1×1.5 inch sections of curly dock (Rumex crispus) leaves were immersed in the test solution for 2-3 seconds. After drying on a wire screen, the leaves were placed in petri dishes containing a moistened piece of filter paper. Each dish was infested with 5 secondinstar saltmarsh larvae.
(§11) Mortality of the larvae was recorded 48 hours later. A piece of synthetic media was added to the dishes containing surviving larvae. The larvae were then observed for 5 additional days for delayed effects of the test compounds. Test concentrations ranged from 0.05% down to that at which approximately 50% mortality occurs. Cabbage Looper [Trichoplusia ni (Hubner)], (CL)
as §4
For `CCOC(=O)N1CCN(C(=O)CSP(=S)(OCC)OCC)CC1` [Compound 12, 1-N-ethoxycarbo-4-N-O,O-diethylphosphorodithioylacetyl piperazine], the “LD50 SMC” value was “> .05%”. For `CCOC(=O)N1CCN(C(=O)CSP(=S)(OCC)OCC)C(C)C1` (centres unmarked) [Compound 13, 1-N-ethoxycarbo-4-N'-O,O-diethylphosphorodithioylacetyl-3-methyl piperazine], the “LD50 SMC” value was “> .05%”.

Each compound was assayed on Cabbage Looper [Trichoplusia ni (Hubner)] (assay: Cabbage Looper (CL) leaf dip assay). Settings: squash cotyledons, initial 0.1%.
Type: in vivo
Method: as §5, §10, §11
The effectiveness of the compounds was tested in the same manner as for the saltmarsh caterpillar with two exceptions. Cotyledons of hyzini squash (Calabacita abobrinha, were substituted for curly dock leaves and the initial test concentration was 0.1%. Tobacco Budworm [Heliothis virescens (Fabricius)], (TBW)
as §4
In the case of `CCOC(=O)N1CCN(C(=O)CSP(=S)(OCC)OCC)CC1` [Compound 12, 1-N-ethoxycarbo-4-N-O,O-diethylphosphorodithioylacetyl piperazine], the “LD50 CL” value is reported as “> .1%”. In the case of `CCOC(=O)N1CCN(C(=O)CSP(=S)(OCC)OCC)C(C)C1` (centres unmarked) [Compound 13, 1-N-ethoxycarbo-4-N'-O,O-diethylphosphorodithioylacetyl-3-methyl piperazine], the “LD50 CL” value is reported as “> .1%”. For `CCOC(=O)N1CCN(C(=O)CSP(=O)(OCC)OCC)C(C)C1` (centres unmarked) [Compound 14, 1-N-carboethoxy-4-N'-O,O-diethylphosphoromonothioylacetyl-3-methyl piperazine], the “LD50 CL” value was “> .1%”.

The compounds below were run on Southern House Mosquito Larvae (Culex pipiens quinquefasciatus) (assay: Southern House Mosquito larvae (M) assay, mortality 48 hours after treatment). Settings: third-instar larvae in aqueous solution, initial 1 ppm, read-out: LD50 M.
Type: in vivo
Method: as §5
Tobacco budworms were tested in the same manner as the cabbage looper. Romaine lettuce (Latuca sativa) leaves provided the substrate. Southern House Mosquito Larvae (Culex pipiens quinquefasciatus), (M)
Ten third-instar larvae were placed in a six ounce wax paper cup containing 100 ml of an aqueous solution of the test compounds at a concentration of 1 ppm. The treated larvae were stored at 70° F. (21.5° C.) and mortality was recorded 48 hours after treatment. Two-Spotted Mite [Tetranychus urticae (Koch)], (2SM)
as §4
For `CCOC(=O)N1CCN(C(=O)CSP(=S)(OCC)OCC)CC1` [Compound 12, 1-N-ethoxycarbo-4-N-O,O-diethylphosphorodithioylacetyl piperazine], the LC50 was > 1 µg/mL. In the case of `CCOC(=O)N1CCN(C(=O)CSP(=S)(OCC)OCC)C(C)C1` (centres unmarked) [Compound 13, 1-N-ethoxycarbo-4-N'-O,O-diethylphosphorodithioylacetyl-3-methyl piperazine], the LC50 is reported as > 1 µg/mL. With `CCOC(=O)N1CCN(C(=O)CSP(=O)(OCC)OCC)C(C)C1` (centres unmarked) [Compound 14, 1-N-carboethoxy-4-N'-O,O-diethylphosphoromonothioylacetyl-3-methyl piperazine] the LC50 was > 1 µg/mL.

The compounds below were run on Two-Spotted Mite [Tetranychus urticae (Koch)] (assay: Two-Spotted Mite (2SM) plant dip assay, mortality seven days later). Settings: adult mites.
Type: in vivo
Description: as §1
Pinto bean plants (Phaseolus vulgaris) approximately 10 cm high were transplanted into sandy loam soil in three-inch clay pots. The plants were thoroughly infested with two-spotted mites of mixed ages and sexes. Twenty-four hours after infestation the plants were inverted and dipped for 2-3 seconds in 50--50 acetone-water solutions of the test compounds.
Mortality ratings for both adult mites and nymphs hatching after treatment were taken seven days later. Test concentrations ranged from 0.05% down to that at which 50% mortality occurs.
as §4
`CCOC(=O)N1CCN(C(=O)CSP(=S)(OCC)OCC)CC1` [Compound 12, 1-N-ethoxycarbo-4-N-O,O-diethylphosphorodithioylacetyl piperazine] was tested, and the “LD50 2SM Adults” value was “.001%”. `CCOC(=O)N1CCN(C(=O)CSP(=S)(OCC)OCC)C(C)C1` (centres unmarked) [Compound 13, 1-N-ethoxycarbo-4-N'-O,O-diethylphosphorodithioylacetyl-3-methyl piperazine] was tested, and the “LD50 2SM Adults” value was “.003%”. `CCOC(=O)N1CCN(C(=O)CSP(=O)(OCC)OCC)C(C)C1` (centres unmarked) [Compound 14, 1-N-carboethoxy-4-N'-O,O-diethylphosphoromonothioylacetyl-3-methyl piperazine] was tested, and the “LD50 2SM Adults” value was “< .05%”.

Same assay, conditions: eggs (nymphs hatching after treatment)
`CCOC(=O)N1CCN(C(=O)CSP(=S)(OCC)OCC)CC1` [Compound 12, 1-N-ethoxycarbo-4-N-O,O-diethylphosphorodithioylacetyl piperazine] was tested, and the “LD50 2SM Eggs” value was “.002%”. In the case of `CCOC(=O)N1CCN(C(=O)CSP(=S)(OCC)OCC)C(C)C1` (centres unmarked) [Compound 13, 1-N-ethoxycarbo-4-N'-O,O-diethylphosphorodithioylacetyl-3-methyl piperazine], the “LD50 2SM Eggs” value is reported as “.006%”. For `CCOC(=O)N1CCN(C(=O)CSP(=O)(OCC)OCC)C(C)C1` (centres unmarked) [Compound 14, 1-N-carboethoxy-4-N'-O,O-diethylphosphoromonothioylacetyl-3-methyl piperazine], the “LD50 2SM Eggs” value was “< .05%”.

What follows are compounds tested on Housefly [Musca domestica (Linn.)] (assay: not given). Settings: topical, 48 h.
`CCOC(=O)N1CCN(C(=O)CSP(=S)(OCC)OCC)CC1` [Compound 12, 1-N-ethoxycarbo-4-N-O,O-diethylphosphorodithioylacetyl piperazine] was tested, and the “LD50 HF” value was > 10 μg/25. `CCOC(=O)N1CCN(C(=O)CSP(=S)(OCC)OCC)C(C)C1` (centres unmarked) [Compound 13, 1-N-ethoxycarbo-4-N'-O,O-diethylphosphorodithioylacetyl-3-methyl piperazine] was tested, and the “LD50 HF” value was > 10 μg/25. With `CCOC(=O)N1CCN(C(=O)CSP(=O)(OCC)OCC)C(C)C1` (centres unmarked) [Compound 14, 1-N-carboethoxy-4-N'-O,O-diethylphosphoromonothioylacetyl-3-methyl piperazine] the “LD50 HF” value was > 10 μg/25.

These compounds were tested on Tobacco Budworm [Heliothis virescens (Fabricius)] (assay: not given). Settings: leaf dip, Romaine lettuce leaves.
`CCOC(=O)N1CCN(C(=O)CSP(=S)(OCC)OCC)CC1` [Compound 12, 1-N-ethoxycarbo-4-N-O,O-diethylphosphorodithioylacetyl piperazine] was tested, and the “LD50 TBW” value was “> .1%”. For `CCOC(=O)N1CCN(C(=O)CSP(=S)(OCC)OCC)C(C)C1` (centres unmarked) [Compound 13, 1-N-ethoxycarbo-4-N'-O,O-diethylphosphorodithioylacetyl-3-methyl piperazine], the “LD50 TBW” value was “> .05%”. In the case of `CCOC(=O)N1CCN(C(=O)CSP(=O)(OCC)OCC)C(C)C1` (centres unmarked) [Compound 14, 1-N-carboethoxy-4-N'-O,O-diethylphosphoromonothioylacetyl-3-methyl piperazine], the “LD50 TBW” value is reported as “> .1%”.
